These results are taken from patent US8481530B2, “3β-hydroxysteroid dehydrogenase inhibitors” (The Research Foundation of State University of New York, priority 2007, dated 2013).

Structures are written as SMILES. pIC50: −log10 of the molar value.

Chain of M. tuberculosis 3β-hydroxysteroid dehydrogenase (P9WQP7 whole entry, looked up): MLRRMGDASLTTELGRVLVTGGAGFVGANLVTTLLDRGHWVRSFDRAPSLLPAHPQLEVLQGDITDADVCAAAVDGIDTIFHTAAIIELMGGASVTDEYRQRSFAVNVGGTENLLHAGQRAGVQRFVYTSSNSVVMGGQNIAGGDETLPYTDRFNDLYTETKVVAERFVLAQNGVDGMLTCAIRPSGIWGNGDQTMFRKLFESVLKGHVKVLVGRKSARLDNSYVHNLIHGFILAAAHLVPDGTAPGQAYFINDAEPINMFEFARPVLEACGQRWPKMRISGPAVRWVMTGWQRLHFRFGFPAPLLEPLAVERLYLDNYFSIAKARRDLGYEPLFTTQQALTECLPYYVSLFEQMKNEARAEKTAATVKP

The first assay concerns the target M. tuberculosis 3β-hydroxysteroid dehydrogenase (Mycobacterium tuberculosis, UniProt P9WQP7). The experiment in a line: 3β-hydroxysteroid dehydrogenase in vitro inhibitory activity assay. The assay is classed as biochemical.
Settings: not given
Regarding `CC(C)CCCC(C)[C@H]1CCC2C3CNC4=CC(=O)CC[C@]4(C)C3CC[C@@]21C` (stereo partly shown), the pIC50 was > 6.00.
Still for that read-out and setting: next, `CC(C)(C)c1ccc(C(F)(F)F)cc1NC(=O)[C@H]1CCC2C3CNC4=CC(=O)CC[C@]4(C)C3CC[C@@]21C` (stereo partly shown): 4.30 to 6.00.
Molecule `CC(C)(C)c1ccc(C(C)(C)C)c(NC(=O)[C@H]2CCC3C4CNC5=CC(=O)CC[C@]5(C)C4CC[C@@]32C)c1` (stereo partly shown) showed a pIC50 of 4.30 to 6.00.
Take `C[C@]12CCC(=O)C=C1NCC1C2CC[C@@]2(C)C1CC[C@@H]2C(=O)Nc1ccc(N2CCOCC2)cc1` (stereo partly shown): the pIC50 was < 4.30.

Still in this assay, the particulars now being: purified enzyme, 150 μM dehydroepiandrosterone, 3.5 mM NAD+, pH 8.5, NADH at 340 nm; read-out: IC50 M. tuberculosis 3β-hydroxysteroid dehydrogenase.
As to `CC(C)CCCC(C)[C@H]1CCC2C3C(CC[C@@]21C)[C@@]1(C)CCC(=O)C=C1N[C@H]3C` (stereo partly shown), the pIC50 was 4.30 to 6.00.
Consider `C[C@]12CCC(=O)C=C1NCC1C2CC[C@@]2(C)C1CC[C@@H]2C(=O)Nc1ccccc1C(=O)c1ccccc1` (stereo partly shown), for which the pIC50 was 4.30 to 6.00.
Turning to `C[C@]12CCC(=O)C=C1NCC1C2CC[C@@]2(C)C1CC[C@@H]2C(=O)O` (stereo partly shown), the pIC50 is < 4.30.
